Experimental data: PubChem BioAssay (NCI)
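Grown in 96-well plates, cells were treated for 48 hours with each compound at five concentrations. Insufficient inhibition: endpoint recorded as highest concentration tested. At the GI50, growth is halved. TGI is the concentration that stops growth completely.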

How the values were obtained:
Assay in all cases: NCI-60 cell line screen, 48 h
HCT-116 colon = tested on: HCT-116 colon
SW-620 colon = tested on: SW-620 colon
HCT-15 colon = tested on: HCT-15 colon
SN12C renal = tested on: SN12C renal
HL-60(TB) leukemia = tested on: HL-60(TB) leukemia
NCI-H23 lung = tested on: NCI-H23 lung
NCI-H522 lung = tested on: NCI-H522 lung
SNB-19 CNS = tested on: SNB-19 CNS
LOX IMVI melanoma = tested on: LOX IMVI melanoma
XF 498 CNS = tested on: XF 498 CNS

Row | Compound | GI50 (HCT-116 colon) [µM] | TGI (HCT-116 colon) [µM] | GI50 (SW-620 colon) [µM] | TGI (SW-620 colon) [µM] | GI50 (HCT-15 colon) [µM] | TGI (HCT-15 colon) [µM] | GI50 (SN12C renal) [µM] | TGI (SN12C renal) [µM] | GI50 (HL-60(TB) leukemia) [µM] | TGI (HL-60(TB) leukemia) [µM] | GI50 (NCI-H23 lung) [µM] | TGI (NCI-H23 lung) [µM] | GI50 (NCI-H522 lung) [nM] | TGI (NCI-H522 lung) [µM] | GI50 (SNB-19 CNS) [µM] | TGI (SNB-19 CNS) [µM] | GI50 (LOX IMVI melanoma) [µM] | TGI (LOX IMVI melanoma) [µM] | TGI (XF 498 CNS) [µM]
1 | Cc1ccc(C(=O)c2oc3ccc4c(C)cc(=O)oc4c3c2C)cc1 | 43.8 | > 100 | 8.56 | > 100 | 0.585 | > 100 | 10.4 | > 100 | 13.4 | > 100 | 27.3 | > 100 | 9120 | 55.2 | 5.98 | > 100 | 2.45 | 19.1 | 
2 | COc1ccc2c(c1)C(=O)CC(N)C2 (stereo not given) |  | > 100 |  | > 100 |  | > 100 |  | > 100 |  | > 100 |  | > 100 |  | > 100 |  | > 100 |  | > 100 | 
3 | Nc1nc(-c2cccc([N+](=O)[O-])c2)c(Br)c(=O)[nH]1 |  | > 100 |  | > 100 |  | > 100 |  | > 100 |  | > 100 |  | > 100 |  | > 100 |  | > 73 |  | > 100 | 
4 | COc1cc(OC)c(/C=C/c2ccc3ccccc3[n+]2C)c(OC)c1 | 0.392 | 11.7 | 0.902 | 11.3 | 12.8 | > 100 | 0.36 | 16.9 | 0.363 | 2.92 | 0.686 | 12.2 | 1140 | 6.25 | 0.375 | 14.8 | 1.33 | 3.99 | 
5 | CC(=O)Oc1cc(C)ccc1[C@]1(C)CC[C@H](C)/C1=C\Br | 4.44 | 18.8 | 5.31 | 17.1 | 4.51 | 19.2 | 9.24 | 25.3 | 3.41 | 15 | 6.54 | 20.3 | 5280 | 22.7 | 3.97 | 17.4 | 4.77 | 17.1 | 
6 | COc1cc2c(cc1OCc1ccccc1)N=C[C@@H]1C/C(=C/C(=O)NCCCN3C(=O)c4cccc5cccc(c45)C3=O)CN1C2=O | 0.538 | > 100 | 0.284 | 15.5 | 3.96 | > 100 | 0.346 | 2.4 | 0.171 | > 23.3 | 0.352 | 1.89 | 228 |  | 0.348 | > 56.7 | 0.277 | > 35.8 | 
7 | Oc1ccc(Br)cc1Sc1cc(Br)ccc1O | 6 | 24.3 | 9.29 | 25.3 | 5.93 | 22 | 3.89 | 16.8 | 4.98 | 25 | 3.14 | 11.8 | 2690 | 8.46 | 4.88 | 25.2 | 4.89 | 17.6 | 
8 | Oc1ccc(N=Nc2ccc(Cl)cc2)cc1 |  | 29.4 |  | > 100 |  | 32.8 |  | 31.2 |  | 52.3 |  | 32.3 |  | 25 |  | 34.3 |  | 24.6 | 
9 | COc1cc2nc(-c3ccc(C(F)(F)F)cc3)cc(OCCCN3CCOCC3)c2cc1OC | 0.583 | 13.5 | 3.51 | 15.4 | 0.52 | 5.57 | 0.675 | 19.7 | 9.58 | 47.3 | 2.36 | 12 | 2520 | 15.3 | 2.91 | 13.6 | 0.141 | 0.324 | 
10 | COC(=O)CCC/C=C\C[C@H]1C=CC(=O)/C1=C/C[C@@H](O)CCc1cccc(C(F)(F)F)c1 | 1.78 | 4 | 3.28 | 10.6 | 1.67 | 4.18 | 4.2 | 16.9 | 2.53 | 7.17 | 2.03 | 5.18 | 2020 | 5.57 | 4.04 | 16.6 | 0.955 | 2.24 | 
11 | C=CCCCCCCCCCCCC1CCC(CC)N1 (stereo not given) |  | 20.1 |  | 24.6 |  | 12.9 |  | 24.3 |  | 9.01 |  | 28.6 |  | 13.5 |  | 36.3 |  | 24.5 | 
12 | O=c1ccn(C2OC(CO)C(O)C2O)c(=O)[nH]1 (stereo not given) | > 1000 | > 1000 | > 1000 | > 1000 | > 1000 | > 1000 | > 1000 | > 1000 | > 1000 | > 1000 | > 1000 | > 1000 |  | > 1000 | > 1000 | > 1000 | > 1000 | > 1000 | 
13 | CN(C)CCNc1nc2ccccc2c2c1c1c(n2Cc2ccccc2)-c2ccccc2C1=O | 4.67 | 25.2 | 7.96 | 24 | 10.7 | 26.1 | 12.6 | 27.5 | 15.2 | 34.1 | 14.8 | 39.7 | 11000 | 35.3 | 16.4 | 33.8 | 11.8 | 26.1 | 
14 | CCCCCCC/C=C/[C@H]1O[C@]23C(=O)C[C@@]4(C[C@@H](OC5OC(CO)C(O)C(O)C5O)C[C@@H]4[C@H]2C=C1C)OC3=O (stereo not given in full) | 1.68 | 6.03 | 3.56 | 11.7 | 2.53 | 9.43 | 5.46 | 14.9 | 1.2 | 7.53 | 5.75 | 15.8 | 1700 | 8.64 | 5.25 | 10.2 | 2.4 | 6.84 | 
15 | O=C(Nc1ccccc1)c1ccc(Cl)c([N+](=O)[O-])c1 |  |  |  | 34 |  | 46.5 |  | 79.4 |  |  |  | 63.6 |  | 32 |  | 97.4 |  | > 100 | 43.4
16 | CC(=O)N/C(=C\c1ccc(/C=C(\NC(C)=O)c2nc3ccc(Cl)cc3[nH]2)cc1)c1nc2ccccc2[nH]1 |  | > 100 |  | > 100 |  | > 100 |  | > 100 |  |  |  | > 100 |  | > 100 |  | > 100 |  |  | > 100
